This passage reports AC50 results from patent US6706725B1, “Vitamin D analogues” (Galderma Research & Development, S.N.C., priority 1999, dated 2004).

The target of this test is T1, human VDR receptor (Homo sapiens, UniProt P11473).
T1 construct: expressed in transfected cells; host or cells: HeLa
T1 sequence (P11473 1-427): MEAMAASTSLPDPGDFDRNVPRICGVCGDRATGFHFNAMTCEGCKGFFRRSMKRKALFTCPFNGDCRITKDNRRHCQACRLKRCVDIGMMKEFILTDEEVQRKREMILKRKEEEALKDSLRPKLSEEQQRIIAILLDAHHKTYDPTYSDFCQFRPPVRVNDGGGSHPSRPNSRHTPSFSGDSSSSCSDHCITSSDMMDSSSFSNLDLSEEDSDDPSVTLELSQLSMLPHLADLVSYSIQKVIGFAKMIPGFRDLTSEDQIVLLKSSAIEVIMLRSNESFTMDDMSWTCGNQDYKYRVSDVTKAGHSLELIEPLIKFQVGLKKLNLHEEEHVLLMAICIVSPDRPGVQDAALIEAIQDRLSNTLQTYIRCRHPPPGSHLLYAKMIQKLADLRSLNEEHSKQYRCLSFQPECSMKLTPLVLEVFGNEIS
In words: VDR agonist activity by co-transfection in HeLa cells (human VDR expression vector + p240Hase-CAT reporter, CAT ELISA). The note with it: HeLa cell line co-transfected with human VDR and rat 24-hydroxylase promoter-CAT reporter; treatment for 18 hours; read-out: AC 50 (dose required to achieve 50% of the maximum activity of the product). In kind it is cell-based. As to the method: By way of example, the VDR agonist activity can be tested on the HeLa cell line by co-transfection with an expression vector for the human VDR receptor and the reporter plasmid p240Hase-CAT which contains the region −1399 to +76 of rat 24-hydroxylase promoter, cloned upstream of the frame encoding the chloramphenicol-acetyl-transferase (CAT) gene. 18 hours after co-transfection, the test product is added to the medium. After treatment for 18 hours, assay of the CAT activity in the cell lysates is carried out by an ELISA test. The results are expressed as percentages of the effect normally observed with 10^−7M calcitriol.
The agonist activity can also be characterized in the co-transfection system, by determining the dose required to reach 50% of the maximum activity of the product (AC50).
The VDR agonist activity was tested on the HeLa cell line, by co-transfection of an expression vector of the human VDR receptor and of the reporter plasmid p240Hase-CAT which contains the region −1399 to +76 of the rat 24-hydroxylase promoter, cloned upstream of the coding frame of the chloramphenicol-acetyl-transferase (CAT) gene. 18 hours after co-transfection, the test product is added to the medium. After treatment for 18 hours, the CAT activity of the cell lysates is assayed by an ELISA test. The results are expressed as a percentage of the effect normally observed with 10^−7 M of calcitriol.
The agonist activity was characterized in this co-transfection system by determining the dose required to achieve 50% of the maximum activity of the product (AC50).

For the compound `CC/C(=C\CCC(O)(CC)CC)c1csc(COc2ccc(CO)c(CO)c2)c1` [Example 12, (E)-7-[5-(3,4-bis-Hydroxymethyl-phenoxymethyl)-3-thienyl]-3-ethylnon-6-en-3-ol], the AC50 was determined as 655 nM. Take `CC/C(=C\C=C\C(O)(C(F)(F)F)C(F)(F)F)c1ccc(COc2ccc(CO)c(CO)c2)s1` [Example 13, (3E,5E)-6-[5-(3,4-bis-Hydroxymethyl-phenoxymethyl)-2-thienyl]-1,1,1-trifluoro-2-trifluoromethylocta-3,5-dien-2-ol]: the AC50 turned out to be 78 nM. For `CC/C(=C\CCC(O)(CC)CC)c1ccc(COc2ccc(CO)c(CO)c2)s1` [Example 6, (E)-7-[5-(3,4-bis-Hydroxymethyl-phenoxymethyl)-2-thienyl]-3-ethylnon-6-en-3-ol], the AC50 was determined as 61 nM. Next, `CC/C(=C\C=C\C(O)(CC)CC)c1ccc(COc2ccc(CO)c(CO)c2)s1` [Example 7, (4E,6E)-7-[5-(3,4-bis-Hydroxymethyl-phenoxymethyl)-2-thienyl]-3-ethylnona-4,6-dien-3-ol]: 17 nM; `CC/C(=C\CCC(O)(CC)CC)c1cc(CCc2ccc(CO)c(CO)c2)cs1` [Example 10, (E)-7-[4-[2-(3,4-bis-Hydroxymethyl-phenyl)ethyl]-2-thienyl)-3-ethylnon-6-en-3-ol]: 23 nM; `CCC(O)(CC)CC/C=C(\C)c1cc(COc2ccc(CO)c(CO)c2)cs1` [Example 2, (E)-7-[4-(3,4-bis-Hydroxymethyl-phenoxymethyl)-2-thienyl]-3-ethyloct-6-en-3-ol]: 267 nM.

On to `CCC(O)(CC)CC/C=C(\C)c1ccc(COc2ccc(CO)c(CO)c2)s1` [Example 1, (E)-7-[5-(3,4-bis-Hydroxymethyl-phenoxymethyl)-2-thienyl]-3-ethyloct-6-en-3-ol], for which the AC50 is 192 nM. Next, `CC/C(=C\CCC(O)(CC)CC)c1ccc(CCc2ccc(CO)c(CO)c2)s1` [Example 8, (E)-7-{5-[2-(3,4-bis-Hydroxymethyl-phenyl)ethyl]-2-thienyl}-3-ethylnon-6-en-3-ol]: 29 nM; `CC/C(=C\CCC(O)(CC)CC)c1cccc(COc2ccc(CO)c(CO)c2)n1` [Example 4, (E)-7-[6-(3,4-bis-Hydroxymethyl-phenoxymethyl)-2-pyridyl]-3-ethylnon-6-en-3-ol]: 294 nM.
